According to patent US11053204B2, “Pyrimidinyloxy benzene derivatives as herbicides” (FMC Corporation, priority 2015, dated 2021):

Experiments:
Type in all cases: in vivo
[1] = tested on: barnyardgrass (Echinochloa crus-galli); experiment: Test A postemergence, visual injury rating; details: 0 is no effect, 100 is complete control; for Barnyardgrass plant response rating: 0 to 100 scale, approximately 10 days
Method in brief: (§1)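 Visual injury scored 0–100 (100 = complete control) against untreated controls about 10 days after treatment in a greenhouse. Test chemicals, formulated with surfactant in non-phytotoxic solvent, were sprayed on soil preemergence or on 2-10 cm, one- to two-leaf plants postemergence.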

[2] = tested on: ragweed (common ragweed, Ambrosia elatior); experiment: Test A postemergence, visual injury rating
Method in brief: as §1

[3] = tested on: blackgrass (Alopecurus myosuroides); experiment: Test A postemergence, visual injury rating
Method in brief: as §1

[4] = tested on: galium (catchweed bedstraw, Galium aparine); experiment: Test A postemergence, visual injury rating
Method in brief: as §1

[5] = tested on: wheat (Triticum aestivum); experiment: Test A postemergence, visual injury rating
Method in brief: as §1

[6] = tested on: pigweed (Amaranthus retroflexus); experiment: Test A postemergence, visual injury rating
Method in brief: as §1

[7] = tested on: kochia (Kochia scoparia); experiment: Test A postemergence, visual injury rating
Method in brief: as §1

[8] = tested on: Italian ryegrass (Lolium multiflorum); experiment: Test A postemergence, visual injury rating
Method in brief: as §1

[9] = tested on: giant foxtail (Setaria faberii); experiment: Test A postemergence, visual injury rating
Method in brief: as §1

[10] = tested on: corn (Zea mays); experiment: Test A postemergence, visual injury rating
Method in brief: as §1

[11] = tested on: barnyardgrass (Echinochloa crus-galli); experiment: Test B flooded paddy test, plant response rating; details: 250 g ai/ha; Flood; scale of 0 to 100 where 0 is no effect and 100 is complete control; 13 to 15 days
Method in brief: (§2)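 Visual injury ratings against untreated controls, taken 13 to 15 days after compound was added to paddy water standing 3 cm above the soil.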

[12] = tested on: ducksalad (Heteranthera limosa); experiment: Test B flooded paddy test, plant response rating; details: 250 g ai/ha; Flood; scale of 0 to 100 where 0 is no effect and 100 is complete control; 13 to 15 days
Method in brief: as §2

[13] = tested on: rice (Oryza sativa); experiment: Test B flooded paddy test, plant response rating; details: 250 g ai/ha; Flood; scale of 0 to 100 where 0 is no effect and 100 is complete control; 13 to 15 days
Method in brief: as §2

[14] = tested on: sedge, umbrella (small-flower umbrella sedge, Cyperus difformis); experiment: Test B flooded paddy test, plant response rating; details: 250 g ai/ha; Flood; scale of 0 to 100 where 0 is no effect and 100 is complete control; 13 to 15 days
Method in brief: as §2

[15] = tested on: barnyardgrass (Echinochloa crus-galli); experiment: Test A preemergence, visual injury rating
Method in brief: as §1

[16] = tested on: ragweed (common ragweed, Ambrosia elatior); experiment: Test A preemergence, visual injury rating
Method in brief: as §1

[17] = tested on: pigweed (Amaranthus retroflexus); experiment: Test A preemergence, visual injury rating
Method in brief: as §1

[18] = tested on: kochia (Kochia scoparia); experiment: Test A preemergence, visual injury rating
Method in brief: as §1

[19] = tested on: Italian ryegrass (Lolium multiflorum); experiment: Test A preemergence, visual injury rating
Method in brief: as §1

[20] = tested on: giant foxtail (Setaria faberii); experiment: Test A preemergence, visual injury rating
Method in brief: as §1

[21] = 31 g ai/ha, 0 to 100 scale (0 no effect, 100 complete control)
[22] = 125 g ai/ha, 0 to 100 scale, 0 is no effect, 100 is complete control, approximately 10 days
[23] = 31 g ai/ha, 0 to 100 scale, 0 no effect, 100 complete control
[24] = 125 g ai/ha, 0 to 100 scale (0 no effect, 100 complete control)
[25] = 500 g ai/ha, 0 is no effect, 100 is complete control
[26] = 500 g ai/ha, 0 to 100 scale (0 no effect, 100 complete control)

Row | SMILES | Barnyardgrass plant response rating ([1]; 125 g ai/ha) | Ragweed plant response rating [2, 22] | Blackgrass plant response rating [3, 22] | Galium plant response rating [4, 22] | Wheat plant response rating [5, 22] | Pigweed plant response rating [6, 22] | Kochia plant response rating [7, 22] | Ryegrass, Italian plant response rating [8, 22] | Foxtail, Giant plant response rating [9, 22] | Corn plant response rating [10, 22] | Plant response rating, Barnyardgrass [11] | Plant response rating, Ducksalad [12] | Plant response rating, Rice [13] | Plant response rating, Sedge, Umbrella [14] | Plant response rating, Barnyardgrass [15, 24] | Plant response rating, Ragweed [16, 24] | Plant response rating, Pigweed [17, 24] | Plant response rating, Kochia [18, 24] | Plant response rating, Ryegrass, Italian [19, 24] | Plant response rating, Foxtail, Giant [20, 24] | further results
1 | N#Cc1cccc(Oc2ncc(Cl)cn2)c1COCC(F)(F)C(F)(F)F [Compound 132] | 50 | 0 | 30 | 60 | 20 | 90 | 70 | 0 | 50 | 30 | 45 | 90 | 45 | 80 | 100 | 0 | 100 | 60 | 30 | 100 | Barnyardgrass plant response rating ([1]; 31 g ai/ha): 30; Ragweed plant response rating [2, 21]: 0; Blackgrass plant response rating [3, 21]: 0; Galium plant response rating [4, 21]: 20; Wheat plant response rating [5, 21]: 0; Pigweed plant response rating [6, 21]: 60; Kochia plant response rating [7, 21]: 40; Ryegrass, Italian plant response rating [8, 21]: 0; Foxtail, Giant plant response rating [9, 21]: 30; Corn plant response rating [10, 21]: 20; Plant response rating, Barnyardgrass [15, 23]: 30; Plant response rating, Ragweed [16, 23]: 0; Plant response rating, Pigweed [17, 23]: 70; Plant response rating, Kochia [18, 23]: 10; Plant response rating, Ryegrass, Italian [19, 23]: 0; Plant response rating, Foxtail, Giant [20, 23]: 40
2 | N#Cc1cccc(Oc2ncc(Cl)cn2)c1C(=O)CCCC(F)(F)F [Compound 133] | 30 | 0 | 0 | 50 | 0 | 50 | 20 | 0 | 30 | 20 | 0 | 0 | 30 | 0 | 30 | 0 | 100 | 10 | 0 | 90 | Barnyardgrass plant response rating ([1]; 31 g ai/ha): 10; Ragweed plant response rating [2, 21]: 0; Blackgrass plant response rating [3, 21]: 0; Galium plant response rating [4, 21]: 30; Wheat plant response rating [5, 21]: 0; Pigweed plant response rating [6, 21]: 30; Kochia plant response rating [7, 21]: 0; Ryegrass, Italian plant response rating [8, 21]: 0; Foxtail, Giant plant response rating [9, 21]: 10; Corn plant response rating [10, 21]: 0; Plant response rating, Barnyardgrass [15, 23]: 0; Plant response rating, Ragweed [16, 23]: 0; Plant response rating, Pigweed [17, 23]: 70; Plant response rating, Kochia [18, 23]: 0; Plant response rating, Ryegrass, Italian [19, 23]: 0; Plant response rating, Foxtail, Giant [20, 23]: 0
3 | CCc1cccc(Oc2ncc(Cl)cn2)c1CCCCC(F)(F)F [Compound 134] | 20 | 10 | 20 | 40 | 10 | 80 | 60 | 10 | 20 | 10 | 0 | 95 | 20 | 95 | 80 | 0 | 50 | 10 | 20 | 90 | Barnyardgrass plant response rating ([1]; 31 g ai/ha): 0; Ragweed plant response rating [2, 21]: 0; Blackgrass plant response rating [3, 21]: 10; Galium plant response rating [4, 21]: 10; Wheat plant response rating [5, 21]: 0; Pigweed plant response rating [6, 21]: 40; Kochia plant response rating [7, 21]: 20; Ryegrass, Italian plant response rating [8, 21]: 0; Foxtail, Giant plant response rating [9, 21]: 10; Corn plant response rating [10, 21]: 10; Plant response rating, Barnyardgrass [15, 23]: 0; Plant response rating, Ragweed [16, 23]: 0; Plant response rating, Pigweed [17, 23]: 0; Plant response rating, Kochia [18, 23]: 0; Plant response rating, Ryegrass, Italian [19, 23]: 0; Plant response rating, Foxtail, Giant [20, 23]: 10
4 | FC(F)(F)CCCCc1c(Oc2ncc(Cl)cn2)cccc1C1CC1 [Compound 135] | 10 | 10 | 20 | 80 | 0 | 90 | 60 | 10 | 20 | 20 | 0 | 85 | 20 | 85 | 40 | 0 | 20 | 0 | 10 | 50 | Barnyardgrass plant response rating ([1]; 31 g ai/ha): 0; Ragweed plant response rating [2, 21]: 0; Blackgrass plant response rating [3, 21]: 0; Galium plant response rating [4, 21]: 50; Wheat plant response rating [5, 21]: 0; Pigweed plant response rating [6, 21]: 40; Kochia plant response rating [7, 21]: 10; Ryegrass, Italian plant response rating [8, 21]: 0; Foxtail, Giant plant response rating [9, 21]: 10; Corn plant response rating [10, 21]: 10; Plant response rating, Barnyardgrass [15, 23]: 0; Plant response rating, Ragweed [16, 23]: 0; Plant response rating, Pigweed [17, 23]: 0; Plant response rating, Kochia [18, 23]: 0; Plant response rating, Ryegrass, Italian [19, 23]: 0; Plant response rating, Foxtail, Giant [20, 23]: 0
5 | O=Cc1c(Cl)cccc1Oc1ncc(Cl)cn1 [Compound 139] | 0 | 0 | 0 | 0 | 0 | 0 | 0 | 0 | 0 | 0 | 0 | 30 | 0 | 0 | 0 | 50 | 0 | 0 | 0 | 0 | Barnyardgrass plant response rating (0 to 100 scale) ([1]; 500 g ai/ha): 0; Ragweed plant response rating (0 to 100 scale) [2, 25]: 0; Blackgrass plant response rating (0 to 100 scale) [3, 25]: 0; Galium plant response rating (0 to 100 scale) [4, 25]: 0; Wheat plant response rating (0 to 100 scale) [5, 25]: 0; Pigweed plant response rating (0 to 100 scale) [6, 25]: 0; Kochia plant response rating (0 to 100 scale) [7, 25]: 0; Ryegrass, Italian plant response rating (0 to 100 scale) [8, 25]: 20; Foxtail, Giant plant response rating (0 to 100 scale) [9, 25]: 0; Corn plant response rating (0 to 100 scale) [10, 25]: 0; Barnyardgrass plant response rating [15, 26]: 0; Ragweed plant response rating [16, 26]: 0; Pigweed plant response rating [17, 26]: 0; Kochia plant response rating [18, 26]: 0; Ryegrass, Italian plant response rating [19, 26]: 0; Foxtail, Giant plant response rating [20, 26]: 0
